Here are results for 40 compounds from patent publication US7300939B2, “Substituted 1-propiolylpiperazine compounds, their preparation and use” (Gruenenthal GmbH, priority 2005, dated 2007).

The target in one assay is T1, mGluR5 receptor (Sus scrofa, UniProt I3LUI7).
T1 construct: from tissue; host or cells: pig brain halves without medulla, cerebellum and pons
T1 sequence (I3LUI7 19-1212): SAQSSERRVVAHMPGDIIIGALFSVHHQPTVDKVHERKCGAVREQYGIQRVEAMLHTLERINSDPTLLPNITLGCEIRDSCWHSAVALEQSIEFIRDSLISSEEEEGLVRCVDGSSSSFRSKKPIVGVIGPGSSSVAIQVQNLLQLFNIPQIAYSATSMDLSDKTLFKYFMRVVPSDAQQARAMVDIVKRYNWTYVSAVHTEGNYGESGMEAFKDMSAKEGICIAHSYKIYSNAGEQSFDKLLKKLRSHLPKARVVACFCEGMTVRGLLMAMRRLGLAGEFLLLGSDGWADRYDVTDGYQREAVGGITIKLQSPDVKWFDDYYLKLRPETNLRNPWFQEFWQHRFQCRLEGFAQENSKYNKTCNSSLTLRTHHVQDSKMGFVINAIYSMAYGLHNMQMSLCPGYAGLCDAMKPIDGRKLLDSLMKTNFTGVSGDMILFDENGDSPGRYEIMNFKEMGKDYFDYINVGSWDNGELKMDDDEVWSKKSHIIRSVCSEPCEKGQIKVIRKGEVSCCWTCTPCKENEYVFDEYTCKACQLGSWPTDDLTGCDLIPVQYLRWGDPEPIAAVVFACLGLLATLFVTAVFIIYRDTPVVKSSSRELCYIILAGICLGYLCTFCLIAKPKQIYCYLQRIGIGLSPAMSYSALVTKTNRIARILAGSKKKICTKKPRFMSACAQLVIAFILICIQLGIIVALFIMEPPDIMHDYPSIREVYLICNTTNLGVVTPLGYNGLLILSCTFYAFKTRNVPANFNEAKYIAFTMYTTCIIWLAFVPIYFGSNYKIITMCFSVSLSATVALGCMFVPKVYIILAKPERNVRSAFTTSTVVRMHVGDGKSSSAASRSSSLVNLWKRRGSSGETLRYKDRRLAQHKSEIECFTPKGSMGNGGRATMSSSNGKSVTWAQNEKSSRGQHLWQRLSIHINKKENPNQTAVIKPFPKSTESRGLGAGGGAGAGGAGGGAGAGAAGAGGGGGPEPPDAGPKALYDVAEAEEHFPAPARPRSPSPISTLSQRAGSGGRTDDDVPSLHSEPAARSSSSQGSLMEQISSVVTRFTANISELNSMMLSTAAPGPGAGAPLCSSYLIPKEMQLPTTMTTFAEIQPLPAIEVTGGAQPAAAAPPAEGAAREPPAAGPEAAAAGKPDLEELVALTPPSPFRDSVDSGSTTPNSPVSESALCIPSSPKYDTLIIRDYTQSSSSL
Nature of the assay: [3H]-MPEP binding in the mGluR5 receptor binding assay (pig brain homogenate). The following applies: 10 μM; pig brain homogenate; 5 nM [3H]-MPEP. The protocol:
I. Method the Determination of the Inhibition of the [^3H]-MPEP Binding in the mGluR5 Receptor Binding Assay
Pig brain homogenate is prepared by homogenization (Polytron PT 3000, Kinematica AG, 10,000 revolutions per minute 90 seconds) of pig brain halves without medulla, cerebellum and pons in a buffer solution having a pH of 8.0 (30 mM of hepes, Sigma, order no. H3375+1 tablet of Complete to 100 ml, Roche Diagnostics, order no. 1836145) in a ratio of 1:20 (brain weight/volume) and differential centrifugation at 900×g and 40,000×g. In each case 450 μg of protein from brain homogenate are incubated with 5 nM [^3H]-MPEP (Tocris, order no. R1212) (MPEP=2-methyl-6-(3-methoxyphenyl)ethynylpyridine) and the compounds to be investigated (10 μM in the test) in a buffer solution (as above) in 250 μl incubation batches in 96-well microtiter plates at room temperature 60 min.
Thereafter, the batches are filtered with the aid of a Brandel cell harvester (Brandel, Robotic 9600 model) onto Unifilter plates with glass fiber filter mats (Perkin Elmer, order no. 6005177) and then rinsed with buffer solution (as above) 3 times with 250 μl per sample each time. The filter plates are then dried 60 min at 55° C. 30 μl Ultima Gold™ scintillator (Packard BioScience, order no. 6013159) are subsequently added per well and, after 3 hours, the samples are measured on a β-counter (Mikrobeta, Perkin Elmer). The non-specific binding is determined by addition of 10 μM of MPEP (Tocris, order no. 1212).
As for `O=C(C#Cc1ccccc1F)N1CCN(c2nc(-c3ccccc3)ns2)CC1` [CCC3, 4-(3-Phenyl-1,2,4-thiadiazol-5-yl)-1-(3-(2-fluorophenyl)propiolyl)piperazine], the “mGluR5-receptor (% inhibition 10 μM) in pigs” value is reported as 28%.

Turning to `O=C(C#Cc1cccc(F)c1)N1CCN(c2nc(-c3ccccc3)ns2)CC1` [CCC4, 4-(3-Phenyl-1,2,4-thiadiazol-5-yl)-1-(3-(3-fluorophenyl)propiolyl)piperazine], the “mGluR5-receptor (% inhibition 10 μM) in pigs” value is 59%.

With `O=C(C#Cc1ccc(F)cc1)N1CCN(c2nc(-c3ccccc3)ns2)CC1` [CCC5, 4-(3-Phenyl-1,2,4-thiadiazol-5-yl)-1-(3-(4-fluorophenyl)propiolyl)piperazine], the “mGluR5-receptor (% inhibition 10 μM) in pigs” value was 25%.

Take `Cc1ccccc1C#CC(=O)N1CCN(c2nc(-c3ccc(F)cc3)ns2)CC1` [CCC8, 4-(3-(4-Fluorophenyl)-1,2,4-thiadiazol-5-yl)-1-(3-(tol-2-yl)propiolyl)piperazine]: the “mGluR5-receptor (% inhibition 10 μM) in pigs” value came to 25%.

For `CC(C)(C)c1nsc(N2CCN(C(=O)C#Cc3cccs3)CC2)n1` [CCC16, 4-(3-tert-Butyl-1,2,4-thiadiazol-5-yl)-1-(3-(thiophen-2-yl)propiolyl)piperazine], the “mGluR5-receptor (% inhibition 10 μM) in pigs” value came to 33%.

Regarding `COc1ccc(Br)c(C#CC(=O)N2CCN(c3nccs3)CC2)c1` [CCC23, 4-(Thiazol-2-yl)-1-(3-(2-bromo-5-methoxyphenyl)propiolyl)piperazine], the “mGluR5-receptor (% inhibition 10 μM) in pigs” value worked out at 30%.

Turning to `Cc1cccc(C#CC(=O)N2CCN(c3nc(C)cs3)CC2)c1` [CCC31, 4-(4-Methylthiazol-2-yl)-1-(3-(tol-3-yl)propiolyl)piperazine], the “mGluR5-receptor (% inhibition 10 μM) in pigs” value turned out to be 93%.

As for `Cc1ccc(C#CC(=O)N2CCN(c3ncc(C)s3)CC2)cc1` [CCC33, 4-(5-Methylthiazol-2-yl)-1-(3-(tol-4-yl)propiolyl)piperazine], the “mGluR5-receptor (% inhibition 10 μM) in pigs” value stood at 43%.

For the compound `CCOC(=O)c1cccc(C#CC(=O)N2CCN(c3nccs3)CC2)c1` [Example AAA3, 4-(Thiazol-2-yl)-1-(3-(3-carboxyphenyl)propiolyl)piperazine ethyl ester], the “mGluR5-receptor (% inhibition 10 μM) in pigs” value worked out at 40%.

For `O=C(C#Cc1ccc(O)cc1)N1CCN(c2nccs2)CC1` [Example AAA5, 4-(Thiazol-2-yl)-1-(3-(4-hydroxyphenyl)propiolyl)piperazine], the “mGluR5-receptor (% inhibition 10 μM) in pigs” value was 35%.

For the compound `Nc1ccccc1C#CC(=O)N1CCN(c2nccs2)CC1` [Example AAA6, 4-(Thiazol-2-yl)-1-(3-(2-aminophenyl)propiolyl)piperazine], the “mGluR5-receptor (% inhibition 10 μM) in pigs” value is on record as 54%.

With `Nc1cccc(C#CC(=O)N2CCN(c3nccs3)CC2)c1` [Example AAA7, 4-(Thiazol-2-yl)-1-(3-(3-aminophenyl)propiolyl)piperazine], the “mGluR5-receptor (% inhibition 10 μM) in pigs” value is recorded as 91%.

For the compound `Nc1ccc(C#CC(=O)N2CCN(c3nccs3)CC2)cc1` [Example AAA8, 4-(Thiazol-2-yl)-1-(3-(4-aminophenyl)propiolyl)piperazine], the “mGluR5-receptor (% inhibition 10 μM) in pigs” value was 65%.

In the case of `O=C(C#Cc1ccsc1)N1CCN(c2nccs2)CC1` [Example AAA11, 4-(Thiazol-2-yl)-1-(3-(3-thienyl)propiolyl)piperazine], the “mGluR5-receptor (% inhibition 10 μM) in pigs” value stood at 52%.

With `COc1ccccc1C#CC(=O)N1CCN(c2nccs2)CC1` [Example AAA12, 4-(Thiazol-2-yl)-1-(3-(2-methoxyphenyl)propiolyl)piperazine], the “mGluR5-receptor (% inhibition 10 μM) in pigs” value was found to be 34%.

As to `COc1cccc(C#CC(=O)N2CCN(c3nccs3)CC2)c1` [Example AAA13, 4-(Thiazol-2-yl)-1-(3-(3-methoxyphenyl)propiolyl)piperazine], the “mGluR5-receptor (% inhibition 10 μM) in pigs” value worked out at 87%.

As to `COc1ccc(C#CC(=O)N2CCN(c3nccs3)CC2)cc1` [Example AAA14, 4-(Thiazol-2-yl)-1-(3-(4-methoxyphenyl)propiolyl)piperazine], the “mGluR5-receptor (% inhibition 10 μM) in pigs” value is 34%.

Take `N#Cc1ccccc1C#CC(=O)N1CCN(c2nccs2)CC1` [Example AAA15, 4-(Thiazol-2-yl)-1-(3-(2-cyanophenyl)propiolyl)piperazine]: the “mGluR5-receptor (% inhibition 10 μM) in pigs” value amounted to 54%.

As to `N#Cc1cccc(C#CC(=O)N2CCN(c3nccs3)CC2)c1` [Example AAA16, 4-(Thiazol-2-yl)-1-(3-(3-cyanophenyl)propiolyl)piperazine], the “mGluR5-receptor (% inhibition 10 μM) in pigs” value is 93%.

For the compound `O=C(C#Cc1cccc(F)c1)N1CCN(c2nccs2)CC1` [Example AAA22, 4-(Thiazol-2-yl)-1-(3-(3-fluorophenyl)propiolyl)piperazine], the “mGluR5-receptor (% inhibition 10 μM) in pigs” value is recorded as 86%.

In the case of `O=C(C#Cc1ccccc1Cl)N1CCN(c2nccs2)CC1` [Example AAA23, 4-(Thiazol-2-yl)-1-(3-(2-chlorophenyl)propiolyl)piperazine], the “mGluR5-receptor (% inhibition 10 μM) in pigs” value is listed as 70%.

In the case of `O=C(C#Cc1cccc([N+](=O)[O-])c1)N1CCN(c2nccs2)CC1` [Example AAA28, 4-(Thiazol-2-yl)-1-(3-(3-nitrophenyl)propiolyl)piperazine], the “mGluR5-receptor (% inhibition 10 μM) in pigs” value worked out at 82%.

With `O=Cc1cccc(C#CC(=O)N2CCN(c3nccs3)CC2)c1` [Example AAA30, 4-(Thiazol-2-yl)-1-(3-(3-formylphenyl)propiolyl)piperazine], the “mGluR5-receptor (% inhibition 10 μM) in pigs” value was found to be 91%.

On to `O=C(C#Cc1ccccn1)N1CCN(c2nccs2)CC1` [Example AAA32, 4-(Thiazol-2-yl)-1-(3-pyrid-2-ylpropiolyl)piperazine], for which the “mGluR5-receptor (% inhibition 10 μM) in pigs” value amounted to 57%.

In the case of `O=C(C#Cc1cccnc1)N1CCN(c2nccs2)CC1` [Example AAA33, 4-(Thiazol-2-yl)-1-(3-pyrid-3-ylpropiolyl)piperazine], the “mGluR5-receptor (% inhibition 10 μM) in pigs” value came to 50%.

Regarding `O=C(C#Cc1ccncc1)N1CCN(c2nccs2)CC1` [Example AAA34, 4-(Thiazol-2-yl)-1-(3-pyrid-4-ylpropiolyl)piperazine], the “mGluR5-receptor (% inhibition 10 μM) in pigs” value was 71%.

Regarding `CC(C)c1cccc(C#CC(=O)N2CCN(c3nccs3)CC2)c1` [Example AAA36, 4-(Thiazol-2-yl)-1-(3-(3-isopropylphenyl)propiolyl)piperazine], the “mGluR5-receptor (% inhibition 10 μM) in pigs” value is recorded as 40%.

`O=C(C#Cc1cccc(-c2ccccc2)c1)N1CCN(c2nccs2)CC1` [Example AAA37, 4-(Thiazol-2-yl)-1-(3-biphenyl-3-ylpropiolyl)piperazine]: the “mGluR5-receptor (% inhibition 10 μM) in pigs” value was 45%.

Turning to `O=C(C#Cc1ccc2ccccc2c1)N1CCN(c2nccs2)CC1` [Example AAA38, 4-(Thiazol-2-yl)-1-(3-naphth-2-ylpropiolyl)piperazine], the “mGluR5-receptor (% inhibition 10 μM) in pigs” value is recorded as 82%.

`Cn1ccc2cc(C#CC(=O)N3CCN(c4nccs4)CC3)ccc21` [Example AAA39, 4-(Thiazol-2-yl)-1-(3-(1-methyl-indol-5-yl)propiolyl)piperazine]: the “mGluR5-receptor (% inhibition 10 μM) in pigs” value is reported as 74%.

The same assay, now with this note: Table II; unit inferred.
In general, IC50 refers to the concentration that gives 50% inhibition. Higher therefore signals weaker potency in that assay. Compound `Cc1csc(C#CC(=O)N2CCN(c3nccs3)CC2)c1` [AAA00118, 4-(Thiazol-2-yl)-1-(3-(4-methylthiophen-2-yl)propiolyl)piperazine] came in with an IC50 of 93 nM.

For `CC1CN(c2nccs2)CCN1C(=O)C#Cc1cccc(Cl)c1` (stereo not shown) [AAA00119, 2-Methyl-4-(thiazol-2-yl)-1-(3-(3-chlorophenyl)propiolyl)piperazine], the IC50 was 9 nM.

The compound `CC(C)(C)C1CN(c2nccs2)CCN1C(=O)C#Cc1ccccc1` (stereo not shown) [AAA00121, 2-tert-Butyl-4-(thiazol-2-yl)-1-(3-phenylpropiolyl)piperazine] had an IC50 of 110 nM.

In turn, `CC1CN(c2nccs2)CCN1C(=O)C#Cc1cccc(C#N)c1` (stereo not shown) [AAA00123, 2-Methyl-4-(thiazol-2-yl)-1-(3-(3-cyanophenyl)propiolyl)piperazine] had an IC50 of 19 nM.

In turn, `O=C(C#Cc1ccc(F)cc1F)N1CCN(c2nccs2)CC1` [CCC22, 4-(Thiazol-2-yl)-1-(3-(2,4-difluorophenyl)propiolyl)piperazine] registered an IC50 of 10500 nM.

`O=C(C#Cc1ccccc1O)N1CCN(c2nccs2)CC1` [Example AAA4, 4-(Thiazol-2-yl)-1-(3-(2-hydroxyphenyl)propiolyl)piperazine] showed an IC50 of 450 nM.

The compound `O=C(C#Cc1ccc2[nH]ccc2c1)N1CCN(c2nccs2)CC1` [Example AAA9, 4-(Thiazol-2-yl)-1-(3-(indol-5-yl)propiolyl)piperazine] gave an IC50 of 700 nM.

`O=C(C#Cc1cccs1)N1CCN(c2nccs2)CC1` [Example AAA10, 4-(Thiazol-2-yl)-1-(3-(2-thienyl)propiolyl)piperazine] had a half-inhibitory concentration (IC50) of 980 nM.

Compound `O=C(C#Cc1ccccc1F)N1CCN(c2nccs2)CC1` [Example AAA21, 4-(Thiazol-2-yl)-1-(3-(2-fluorophenyl)propiolyl)piperazine] had a half-maximal inhibitory concentration (IC50) of 830 nM.

As to `C=Cc1cccc(C#CC(=O)N2CCN(c3nccs3)CC2)c1` [Example AAA31, 4-(Thiazol-2-yl)-1-(3-(3-ethenylphenyl)propiolyl)piperazine], the concentration for half-maximal inhibition (IC50) came out at 38 nM.
